Reference: patent US12590087B2, “Inhibiting USP36” (Valo Health, Inc., priority 2019, dated 2026)

Molecular target: T1, human USP36 (81-461) (Homo sapiens, UniProt Q9P275)
T1 sequence (Q9P275 81-461): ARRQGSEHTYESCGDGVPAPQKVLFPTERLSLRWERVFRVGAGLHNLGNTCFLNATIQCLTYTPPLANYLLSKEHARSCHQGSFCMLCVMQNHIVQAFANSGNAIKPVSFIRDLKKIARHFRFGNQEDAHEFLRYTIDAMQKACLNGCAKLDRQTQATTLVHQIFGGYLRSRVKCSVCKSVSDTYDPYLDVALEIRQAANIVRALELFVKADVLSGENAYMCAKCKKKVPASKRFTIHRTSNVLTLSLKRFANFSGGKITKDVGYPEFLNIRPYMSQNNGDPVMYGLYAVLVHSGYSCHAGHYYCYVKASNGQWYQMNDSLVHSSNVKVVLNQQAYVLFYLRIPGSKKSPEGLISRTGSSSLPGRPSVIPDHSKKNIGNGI
Assay: USP36 inhibition biochemical assay
Settings: read-out: USP 36 IC50; 2 nM human USP36 (81-461), 25 nM Ub-Rh110MP substrate, 30 minutes preincubation with compound, fluorescence rate over 10 minutes
Protocol: Test compounds were serially diluted in DMSO (Sigma, G7516) to obtain 10-point, 3-fold series. […] Enzyme and substrate concentrations and incubation times were optimized for the maximal signal-to-background while maintaining linear initial velocity conditions at a fixed substrate concentration below Km.
Rates were calculated by: rate=((final FLU−initial FLU)/600 seconds) where final FLU=fluorescence at time 10 minutes, initial FLU=fluorescence at time 0 minutes and 600=duration of reaction in seconds.
Data were reported as percent inhibition compared with control wells based on the following equation: % inh=100*((rate−AveLow)/(AveHigh−AveLow)) where rate=measured rate of fluorescence generated during assay, AveLow=average rate of no enzyme control (n=32), and AveHigh=average rate of DMSO control (n=32).
Data were fitted using the Levenburg Marquardt algorithm.

- IC50: 198 nM
SMILES: O=C(Nc1snnc1C(=O)Nc1ccc(N2CCCC2)cc1)c1cncc(C(F)(F)F)c1 [Compound 1, N-(4-(pyrrolidin-1-yl)phenyl)-5-(5-(trifluoromethyl)nicotinamido)-1,2,3-thiadiazole-4-carboxamide]
